According to US20260092071A1, “COMPOUNDS AND COMPOSITIONS AS SMARCA2/4 DEGRADERS AND USES THEREOF” (REGENTS OF THE UNIVERSITY OF MICHIGAN, priority 2022, published 2026):
Like-named read-outs stand apart in the source and are kept apart here.

Key:
SMARCA4 = SMARCA4 (Homo sapiens, UniProt P51532); assay: HiBiT assay for protein degradation, Hela SMARCA4-HiBiT cells (A series); assay type: cell-based; parameters: fuse HiBiT to the carboxy terminus of SMARCA2 (Promega CS302365) or SMARCA4 (Promega CS3023225); host or cells: HeLa (CRISPR/Cas9 HiBiT knock-in); details: for DC50: read-out: SMARC A4 Hela HiBit DC50
Procedure, shortened: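 SMARCA4 degradation was measured in HeLa cells in which HiBiT had been knocked into the SMARCA4 carboxy terminus via CRISPR/Cas9 (Promega CS3023225). Cells were maintained in DMEM with FBS and penicillin-streptomycin. At the end of treatment, SMARCA4 levels were read by lytic HiBiT luminescence (Nano-Glo®, Promega N3050), and data were analyzed with GraphPad Prism.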

SMARCA2 = SMARCA2 (Homo sapiens, UniProt P51531); assay: HiBiT assay for protein degradation, Hela SMARCA2-HiBiT cells (A series); assay type: cell-based; parameters: Hela cells were genetically modified via CRISPR/Cas9 to fuse HiBiT to the carboxy terminus of SMARCA2; host or cells: HeLa (CRISPR/Cas9 HiBiT knock-in);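 for SMARC A2 Hela HiBit Dmax (%): 24 h compound treatment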
Procedure, shortened: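 SMARCA2 degradation was measured in HeLa cells whose endogenous SMARCA2 carries a carboxy-terminal HiBiT tag introduced by CRISPR/Cas9 (Promega CS302365). Cells were maintained in DMEM with FBS and penicillin-streptomycin. SMARCA2 levels were read at the end of the experiment by Nano-Glo® HiBiT lytic luminescence (Promega N3050) and analyzed in GraphPad Prism.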

[1] = Hela SMARCA4-HiBiT cells, 24 hours treatment
[2] = Hela SMARCA4-HiBiT cells, 24 hours treatment, read-out: SMARC A4 Hela HiBit Dmax
[3] = Hela SMARCA2-HiBiT cells, 24 hours treatment; read-out: SMARC A2 Hela HiBit DC50
[4] = Hela SMARCA2-HiBiT cells, 24 hours treatment; read-out: SMARC A2 Hela HiBit Dmax (%)
[5] = Hela SMARCA4-HiBiT cells, 24 hours treatment, read-out: SMARC A4 Hela HiBit Dmax(%)
[6] = Hela SMARCA2-HiBiT cells, 24 hours treatment
[7] = read-out: SMARC A2 Hela HiBit DC50
[8] = HeLa, read-out: SMARC A4 Hela HiBit Dmax(%)
[9] = HeLa, read-out: SMARC A2 Hela HiBit Dmax (%)

Chain of SMARCA4 (P51532 whole entry): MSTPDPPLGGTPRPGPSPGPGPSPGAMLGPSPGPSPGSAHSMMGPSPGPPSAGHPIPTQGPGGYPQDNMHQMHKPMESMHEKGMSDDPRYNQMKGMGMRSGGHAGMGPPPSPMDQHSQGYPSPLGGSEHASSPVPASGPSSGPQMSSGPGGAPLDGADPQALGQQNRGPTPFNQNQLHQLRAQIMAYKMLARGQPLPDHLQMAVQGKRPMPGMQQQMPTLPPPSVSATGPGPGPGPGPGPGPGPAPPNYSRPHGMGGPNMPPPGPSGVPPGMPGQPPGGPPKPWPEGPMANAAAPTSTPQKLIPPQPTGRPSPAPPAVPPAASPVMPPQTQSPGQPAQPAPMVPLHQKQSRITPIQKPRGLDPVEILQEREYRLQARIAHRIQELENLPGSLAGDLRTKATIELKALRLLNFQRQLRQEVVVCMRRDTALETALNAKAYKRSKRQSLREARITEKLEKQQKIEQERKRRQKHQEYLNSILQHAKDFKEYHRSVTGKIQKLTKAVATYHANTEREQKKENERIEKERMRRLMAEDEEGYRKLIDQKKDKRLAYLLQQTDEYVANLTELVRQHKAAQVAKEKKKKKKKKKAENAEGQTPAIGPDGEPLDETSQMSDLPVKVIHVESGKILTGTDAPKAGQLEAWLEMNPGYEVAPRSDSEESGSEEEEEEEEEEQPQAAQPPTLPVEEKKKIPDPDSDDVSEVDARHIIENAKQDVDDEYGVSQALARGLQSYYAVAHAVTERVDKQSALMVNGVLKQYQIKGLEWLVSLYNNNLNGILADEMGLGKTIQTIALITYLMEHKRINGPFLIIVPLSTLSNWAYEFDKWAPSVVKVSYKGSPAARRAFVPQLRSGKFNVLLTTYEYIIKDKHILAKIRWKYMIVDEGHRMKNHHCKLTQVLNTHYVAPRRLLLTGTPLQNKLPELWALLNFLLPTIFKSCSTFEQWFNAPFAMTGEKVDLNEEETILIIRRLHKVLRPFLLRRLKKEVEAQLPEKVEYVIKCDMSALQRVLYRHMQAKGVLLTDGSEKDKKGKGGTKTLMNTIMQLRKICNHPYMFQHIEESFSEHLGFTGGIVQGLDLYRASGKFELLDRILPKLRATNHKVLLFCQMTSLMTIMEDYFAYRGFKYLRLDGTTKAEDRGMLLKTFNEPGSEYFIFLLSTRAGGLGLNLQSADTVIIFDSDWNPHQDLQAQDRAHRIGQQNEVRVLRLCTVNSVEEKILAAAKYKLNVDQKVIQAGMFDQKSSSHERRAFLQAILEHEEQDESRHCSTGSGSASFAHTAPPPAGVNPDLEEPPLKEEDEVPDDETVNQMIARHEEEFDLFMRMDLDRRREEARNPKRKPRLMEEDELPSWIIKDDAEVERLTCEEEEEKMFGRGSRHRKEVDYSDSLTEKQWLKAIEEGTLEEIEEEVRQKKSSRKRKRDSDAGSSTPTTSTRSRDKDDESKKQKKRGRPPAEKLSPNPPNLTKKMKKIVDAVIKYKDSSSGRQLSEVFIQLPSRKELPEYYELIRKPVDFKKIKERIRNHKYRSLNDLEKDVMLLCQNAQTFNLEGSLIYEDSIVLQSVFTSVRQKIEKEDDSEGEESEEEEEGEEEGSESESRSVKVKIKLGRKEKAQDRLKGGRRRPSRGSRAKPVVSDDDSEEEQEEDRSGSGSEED
Chain of SMARCA2 (P51531 whole entry): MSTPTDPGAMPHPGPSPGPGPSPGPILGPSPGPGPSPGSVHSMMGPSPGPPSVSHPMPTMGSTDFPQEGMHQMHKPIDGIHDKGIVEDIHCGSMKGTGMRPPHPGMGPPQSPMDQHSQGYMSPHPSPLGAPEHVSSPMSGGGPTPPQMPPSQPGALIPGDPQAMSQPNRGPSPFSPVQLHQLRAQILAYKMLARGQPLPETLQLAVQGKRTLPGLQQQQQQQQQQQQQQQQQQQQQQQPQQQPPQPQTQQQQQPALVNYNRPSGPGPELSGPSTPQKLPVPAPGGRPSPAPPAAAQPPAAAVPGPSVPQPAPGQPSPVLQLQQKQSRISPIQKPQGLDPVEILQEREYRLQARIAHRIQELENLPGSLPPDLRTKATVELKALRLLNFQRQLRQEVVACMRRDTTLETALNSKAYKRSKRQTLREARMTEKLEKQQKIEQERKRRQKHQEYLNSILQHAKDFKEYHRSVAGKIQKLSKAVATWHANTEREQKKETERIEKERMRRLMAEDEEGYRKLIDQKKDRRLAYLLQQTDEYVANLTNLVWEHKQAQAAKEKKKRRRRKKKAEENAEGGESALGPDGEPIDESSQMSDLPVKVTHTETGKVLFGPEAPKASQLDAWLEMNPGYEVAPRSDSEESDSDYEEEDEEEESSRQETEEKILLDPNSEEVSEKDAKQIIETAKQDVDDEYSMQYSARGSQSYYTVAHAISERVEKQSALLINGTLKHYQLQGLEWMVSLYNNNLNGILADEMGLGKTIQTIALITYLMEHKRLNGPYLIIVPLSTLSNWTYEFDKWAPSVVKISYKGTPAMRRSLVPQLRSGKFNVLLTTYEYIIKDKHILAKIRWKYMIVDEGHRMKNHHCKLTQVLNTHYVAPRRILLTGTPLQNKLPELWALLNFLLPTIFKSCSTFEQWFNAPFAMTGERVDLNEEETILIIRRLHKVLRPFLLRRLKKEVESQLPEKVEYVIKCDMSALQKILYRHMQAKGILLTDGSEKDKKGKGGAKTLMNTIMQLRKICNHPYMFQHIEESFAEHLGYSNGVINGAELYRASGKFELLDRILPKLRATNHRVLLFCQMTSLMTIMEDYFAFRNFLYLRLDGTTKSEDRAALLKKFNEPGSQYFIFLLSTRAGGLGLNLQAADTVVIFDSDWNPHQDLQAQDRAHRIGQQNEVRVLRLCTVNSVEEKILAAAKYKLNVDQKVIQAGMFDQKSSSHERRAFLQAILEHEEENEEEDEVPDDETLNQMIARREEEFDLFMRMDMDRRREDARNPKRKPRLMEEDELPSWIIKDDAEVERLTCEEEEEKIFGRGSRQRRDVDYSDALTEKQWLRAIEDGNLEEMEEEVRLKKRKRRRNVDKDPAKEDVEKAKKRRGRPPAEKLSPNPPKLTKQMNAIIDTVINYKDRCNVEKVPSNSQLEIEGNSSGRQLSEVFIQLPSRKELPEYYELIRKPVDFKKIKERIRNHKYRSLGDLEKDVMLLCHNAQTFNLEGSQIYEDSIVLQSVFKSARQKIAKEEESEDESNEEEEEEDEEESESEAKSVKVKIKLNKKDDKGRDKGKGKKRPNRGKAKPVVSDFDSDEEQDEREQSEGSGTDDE

SMILES: Cc1ncsc1-c1ccc([C@H](CO)NC(=O)[C@@H]2C[C@@H](O)CN2C(=O)[C@H](C2CCCCC2)n2cc(-c3ccc(CN4CCC(c5ccc6c(c5)-n5c(nc(=O)c7c(Br)cccc75)C65CCCCC5)CC4)cc3)nn2)cc1 [Compound A129]
- DC50 (SMARCA4; [1]): > 1000 nM
- Dmax (SMARCA4; [2]): < 50%
- DC50 (SMARCA2; [3]): 100 to 1000 nM
- Dmax (SMARCA2; [4]): 50 to 69%

SMILES: Cc1ncsc1-c1ccc([C@H](CN(C)C)NC(=O)[C@@H]2C[C@@H](O)CN2C(=O)[C@@H](NC(=O)[C@H]2CC[C@H](CN3CCC(c4ccc5c(c4)C4(CCCCC4)c4nc(=O)c6c(Br)cccc6n4-5)CC3)CC2)C(C)(C)C)cc1 [Compound A15]
- SMARC A4 Hela HiBit DC50(nM) (SMARCA4; [1]): No Fit
- Dmax (SMARCA4; [5]): < 50%
- DC50 (SMARCA2; [3]): < 100 nM
- Dmax (SMARCA2; [4]): > 90%

SMILES: Cc1ncsc1-c1ccc([C@H](CN2CCOCC2)NC(=O)[C@@H]2C[C@@H](O)CN2C(=O)[C@@H](NC(=O)C2CC(CN3CCC(c4ccc5c(c4)C4(CCCCC4)c4nc(=O)c6c(Br)cccc6n4-5)CC3)C2)C(C)(C)C)cc1 (stereo partly drawn) [Compound A21, (2S,4R)-1-((S)-2-(3-((4-(4′-bromo-5′-oxo-5′H-spiro[cyclohexane-1,7′-indolo[1,2-a]quinazolin]-9′-yl)piperidin-1-yl)methyl)cyclobutane-1-carboxamido)-3,3-dimethylbutanoyl)-4-hydroxy-N—((R)-1-(4-(4-methylthiazol-5-yl)phenyl)-2-morpholinoethyl)pyrrolidine-2-carboxamide]
- SMARC A4 Hela HiBit Dmax(%) (SMARCA4; [1]): C (C (50-69% degradation))
- DC50 (SMARCA4): 100 to 500 nM
- SMARC A2 Hela HiBit Dmax (%) (SMARCA2; [6]): A (A (>90% degradation))
- DC50 (SMARCA2; [7]): 100 to 500 nM

SMILES: Cc1ncsc1-c1ccc([C@H](C)NC(=O)[C@@H]2C[C@@H](O)CN2C(=O)[C@@H](NC(=O)[C@H]2CC[C@H](CN3CCC(c4ccc5c(n4)-n4c(nc(=O)c6c(Br)cccc64)C54CCCCC4)CC3)CC2)C(C)(C)C)cc1 [Compound A51, (2S,4R)-1-((S)-2-((1r,4S)-4-((4-(4′-bromo-5′-oxo-5′H-spiro[cyclohexane-1,7′-pyrido[3′,2′: 4,5]pyrrolo[1,2-a]quinazolin]-10′-yl)piperidin-1-yl)methyl)cyclohexane-1-carboxamido)-3,3-dimethylbutanoyl)-4-hydroxy-N—((S)-1-(4-(4-methylthiazol-5-yl)phenyl)ethyl)pyrrolidine-2-carboxamide]
- Dmax (SMARCA4; [8]): < 50%
- SMARC A4 Hela HiBit DC50(nM) (SMARCA4; [1]): No Fit
- Dmax (SMARCA2; [9]): 50 to 69%
- DC50 (SMARCA2; read-out: SMARC A2 Hela HiBit DC50; Hela SMARCA2-HiBiT cells, 24 hours treatment): 501 to 1000 nM

SMILES: COCCOCCOCCOCCOC[C@H](NC(=O)[C@@H]1C[C@@H](O)CN1C(=O)[C@@H](n1cc([C@H]2CC[C@H](CN3CCC(c4ccc5c(c4)-n4c(nc(=O)c6c(Cl)cccc64)C5(C)C)CC3)CC2)nn1)C(C)(C)C)c1ccc(-c2scnc2C)cc1 [Compound A151, (2S,4R)-1-((S)-2-(4-((1r,4S)-4-((4-(4-chloro-7,7-dimethyl-5-oxo-5,7-dihydroindolo[1,2-a]quinazolin-10-yl)piperidin-1-yl)methyl)cyclohexyl)-1H-1,2,3-triazol-1-yl)-3,3-dimethylbutanoyl)-4-hydroxy-N—((R)-16-(4-(4-methylthiazol-5-yl)phenyl)-2,5,8,11,14-pentaoxahexadecan-16-yl)pyrrolidine-2-carboxamide]
- DC50 (SMARCA4; [1]): > 1000 nM
- Dmax (SMARCA4; [2]): < 50%
- DC50 (SMARCA2; [3]): < 10 nM
- Dmax (SMARCA2; [4]): > 90%

SMILES: Cc1ncsc1-c1ccc([C@@H](NC(=O)[C@@H]2C[C@@H](O)CN2C(=O)[C@@H](n2cc(C3CC3)nn2)C(C)(C)C)C(=O)N2CCC3(CCC(N4CCC(c5ccc6c(c5)-n5c(nc(=O)c7c(Br)cccc75)C65CCCCC5)CC4)CC3)CC2)cc1 [Compound A139, (2S,4R)—N—((R)-2-(9-(4-(4′-bromo-5′-oxo-5′H-spiro[cyclohexane-1,7′-indolo[1,2-a]quinazolin]-10′-yl)piperidin-1-yl)-3-azaspiro[5.5]undecan-3-yl)-1-(4-(4-methylthiazol-5-yl)phenyl)-2-oxoethyl)-1-((S)-2-(4-cyclopropyl-1H-1,2,3-triazol-1-yl)-3,3-dimethylbutanoyl)-4-hydroxypyrrolidine-2-carboxamide]
- DC50 (SMARCA4; [1]): < 10 nM
- Dmax (SMARCA4; [2]): 70 to 90%
- DC50 (SMARCA2; [3]): < 10 nM
- Dmax (SMARCA2; [4]): > 90%

SMILES: Cc1ncsc1-c1ccc([C@@H](C)NC(=O)[C@@H]2C[C@@H](O)CN2C(=O)C(c2cc(N3CCC(CN4CCC(c5ccc6c(c5)C5(CCCCC5)c5nc(=O)c7c(Br)cccc7n5-6)CC4)CC3)no2)C(C)C)cc1 (stereo partly drawn) [Compound A59, (2S,4R)-1-(2-(3-(4-((4-(4′-bromo-5′-oxo-5′H-spiro[cyclohexane-1,7′-indolo[1,2-a]quinazolin]-9′-yl)piperidin-1-yl)methyl)piperidin-1-yl)isoxazol-5-yl)-3-methylbutanoyl)-4-hydroxy-N—((R)-1-(4-(4-methylthiazol-5-yl)phenyl)ethyl)pyrrolidine-2-carboxamide]
- DC50 (SMARCA4; [1]): > 1000 nM
- Dmax (SMARCA4; [5]): < 50%
- DC50 (SMARCA2; [3]): < 100 nM
- Dmax (SMARCA2; [4]): 70 to 90%

SMILES: Cc1ncsc1-c1ccc([C@H](C)NC(=O)[C@@H]2C[C@@H](O)CN2C(=O)[C@@H](NC(=O)[C@H]2CC[C@H](CN3CCC(c4ccc5c(c4)-n4c(nc(=O)c6c(Br)cccc64)C54CCCCC4)CC3)CC2)C(C)(C)C)cc1 [Compound A41, (2S,4R)-1-((S)-2-((1r,4S)-4-((4-(4′-bromo-5′-oxo-5′H-spiro[cyclohexane-1,7′-indolo[1,2-a]quinazolin]-10′-yl)piperidin-1-yl)methyl)cyclohexane-1-carboxamido)-3,3-dimethylbutanoyl)-4-hydroxy-N—((S)-1-(4-(4-methylthiazol-5-yl)phenyl)ethyl)pyrrolidine-2-carboxamide]
- Dmax (SMARCA4; [8]): < 50%
- SMARC A4 Hela HiBit DC50(nM) (SMARCA4; [1]): No Fit
- Dmax (SMARCA2; [9]): 70 to 90%
- DC50 (SMARCA2; [3]): < 100 nM

SMILES: COC(=O)C[C@H](NC(=O)[C@@H]1C[C@@H](O)CN1C(=O)[C@@H](n1cc([C@H]2CC[C@H](CN3CCC(c4ccc5c(c4)-n4c(nc(=O)c6c(Cl)cccc64)C54CCCCC4)CC3)CC2)nn1)C(C)(C)C)c1ccc(-c2scnc2C)cc1 [Compound A145, methyl(S)-3-((2S,4R)-1-((S)-2-(4-((1r,4S)-4-((4-(4′-chloro-5′-oxo-5′H-spiro[cyclohexane-1,7′-indolo[1,2-a]quinazolin]-10′-yl)piperidin-1-yl)methyl)cyclohexyl)-1H-1,2,3-triazol-1-yl)-3,3-dimethylbutanoyl)-4-hydroxypyrrolidine-2-carboxamido)-3-(4-(4-methylthiazol-5-yl)phenyl) propanoate]
- DC50 (SMARCA4; [1]): > 1000 nM
- Dmax (SMARCA4; [2]): 50 to 69%
- DC50 (SMARCA2; [3]): < 10 nM
- Dmax (SMARCA2; [4]): > 90%

SMILES: Cc1ncsc1-c1ccc([C@H](CN2CCOCC2)NC(=O)[C@@H]2C[C@@H](O)CN2C(=O)[C@@H](NC(=O)C23CCC(CN4CCC(c5ccc6c(c5)-n5c(nc(=O)c7c(Br)cccc75)C65CCCCC5)CC4)(CC2)CC3)C(C)(C)C)cc1 [Compound A30, (2S,4R)-1-((S)-2-(4-((4-(4′-bromo-5′-oxo-5′H-spiro[cyclohexane-1,7′-indolo[1,2-a]quinazolin]-10′-yl)piperidin-1-yl)methyl)bicyclo[2.2.2]octane-1-carboxamido)-3,3-dimethylbutanoyl)-4-hydroxy-N—((R)-1-(4-(4-methylthiazol-5-yl)phenyl)-2-morpholinoethyl)pyrrolidine-2-carboxamide]
- SMARC A4 Hela HiBit Dmax(%) (SMARCA4; [1]): D (D (<50% degradation))
- DC50 (SMARCA4): > 1000 nM
- SMARC A2 Hela HiBit Dmax (%) (SMARCA2; [6]): B (B (70-90% degradation))
- DC50 (SMARCA2; [7]): < 100 nM
